Test results from patent publication US9018207B2, “Method of treatment or prophylaxis” (Spinifex Pharmaceuticals Pty Ltd, priority 2004, dated 2015).
Several values for one entry are separate records, joined by “and”; a condition that tells them apart may be missing. Identical values can stand only once. Entries after “also recorded” stand apart in the source; their conditions may differ.

What was measured:
Assay type in all cases: in vivo, Sprague-Dawley (SD) rats
STZ-diabetic rats = test: Relief of tactile allodynia (von Frey paw withdrawal thresholds) in the hindpaws of STZ-diabetic rats (model of PDN); conditions: for relief of tactile allodynia (summary in discussion): STZ-diabetic rat model of PDN; for relief of tactile allodynia (summary in discussion) / onset of anti-allodynia (summary in discussion): single i.p. bolus doses; for reversal of tactile allodynia in the hindpaws: i.p., higher doses tested
Experimental: Adult male SD rats were anaesthetized in a manner similar to that described above, to facilitate insertion of a polyethylene cannula (previously filled with 0.1 ml of sterile saline) into the right common jugular vein. Jugular vein cannulae were tested for correct placement by the withdrawal of a small amount of blood. Diabetes was induced following an acute i.v. injection of streptozotocin (STZ) (80 mg/kg) in 0.1 M citrate buffer (pH 4.5) into the jugular vein. Diabetes was confirmed by monitoring the water intake and blood glucose concentration in individual rats. Blood glucose was monitored using either (Glucostix™) or a Precision QID™ test kit.
Consistent with previous studies in the literature (Calcutt et al., 1996, Pain. 68(2-3):293-9), rats that drank more than 100 mL of water per day by 10 days post-STZ injection, were classified as diabetic, and only rats with blood glucose concentrations exceeding 15 mM were included in the subsequent experiments. By comparison, the water intake of control non-diabetic rats was approximately 20 mL per day and blood glucose concentrations were in the range 5-6 mM, consistent with the literature (Calcutt et al., 1996, supra).
Whilst under light anaesthesia with CO2/O2 (50:50%), CCI-rats or STZ-diabetic rats received a single bolus injection (200 μL) of one AT2 receptor antagonist (PD123,319 or L-159,686) by the intravenous (i.v.) or the intraperitoneal (i.p.) route, using a 250 μL Hamilton syringe. The test compounds were administered to CCI-rats at 14 days after CCI-surgery and to STZ-diabetic rats at approximately 8-wks after the induction of diabetes with STZ. Relief of tactile (mechanical) allodynia, the defining symptom of neuropathic pain, by each of the test agents, PD123,319 or L-159,686, was quantified using calibrated von Frey filaments as described below.
Tactile allodynia was quantified using calibrated von Frey filaments. Rats were placed in wire mesh testing cages (20 cm×20 cm×20 cm) and allowed to acclimatise for approximately […] Von Frey filaments were used to determine the lowest mechanical threshold required for a brisk paw withdrawal reflex. Briefly, the filament that produced the lowest force was applied to the plantar surface of the hindpaw until the filament buckled slightly. Absence of a response after 5 s prompted use of the next filament in an ascending sequence. Filaments used produced a buckling weight of 2, 4, 6, 8, 10, 12, 14, 16, 18 and 20 g and these were calibrated prior to each testing session.
For CCI-rats, baseline von Frey paw withdrawal thresholds (PWTs) were quantified prior to CCI-surgery, and at 14 days post-surgery immediately prior to drug administration. For STZ-diabetic rats, baseline von Frey PWT values were determined prior to the induction of diabetes with STZ and at 1-2 weekly intervals thereafter for 8 weeks to document the temporal development of tactile allodynia. For all rats, baseline PWTs were the mean of three readings taken, 5 min apart before drug administration and were determined separately for each hindpaw. After administration of each test compound, von Frey PWTs were determined at the following post-dosing times: 0.08, 0.25, 0.5, 0.75, 1, 1.25, 1.5, 2 and 3 h.
Paw withdrawal thresholds (PWTs; g) were plotted against time to construct response versus time curves for each of the two test compounds (PD123,319 and L-159,686) for each dose and dosing route.
Whilst adult male SD rats were anaesthetized with 3% isoflurane: 97% oxygen, a short polyethylene cannula (0.4 mm ID, 0.8 mm OD) was inserted into the jugular vein to facilitate the intravenous (i.v) administration of a single dose of STZ (75 mg/kg). After removal of the i.v. cannula, the jugular vein was tied off, the wound was closed and topical bupivacaine was applied. Rats received benzylpenicillin (60 mg s.c.) to prevent infection and were kept warm during surgical recovery. […]

[1] = tested on: rats with a chronic constriction injury (CCI) of the sciatic nerve; test: Relief of tactile allodynia (von Frey paw withdrawal thresholds) in the ipsilateral (injured) hindpaw of CCI-rats; conditions: for doses required to produce significant relief of tactile allodynia in CCI-rats compared with STZ-diabetic rats: CCI-rats vs STZ-diabetic rats
Experimental: (§1) Adult male Sprague-Dawley (SD) rats were anaesthetized with Zoletil 100® (0.09 ml/200 g) and Xylazil-20™ (0.1 mL/200 g) administered by intraperitoneal (i.p.) injection, and a chronic constriction injury (CCI) of the sciatic nerve was produced according to the method of Bennett and Xie (1988). Briefly, the left common sciatic nerve was exposed at mid-thigh level by blunt dissection through the biceps femoris. Proximal to the trifurcation, 10 mm of nerve was freed of adhering tissue and four loose ligatures (3.0 silk) were tied around the sciatic nerve 1 mm apart). The incision was closed in layers. After surgery, rats received benzylpenicillin (60 mg s.c.) to prevent infection and were kept warm during surgical recovery. Rats were housed singly for 10-14 days prior to AT2 receptor antagonist or vehicle (normal saline) administration. After CCI-surgery, rats were inspected daily with regard to posture of the affected hindpaw, exploring behavior, body weight and water intake, and any signs of autotomy. Whilst under light anaesthesia with CO2/O2 (50:50%), CCI-rats or STZ-diabetic rats received a single bolus injection (200 μL) of one AT2 receptor antagonist (PD123,319 or L-159,686) by the intravenous (i.v.) or the intraperitoneal (i.p.) route, using a 250 μL Hamilton syringe. The test compounds were administered to CCI-rats at 14 days after CCI-surgery and to STZ-diabetic rats at approximately 8-wks after the induction of diabetes with STZ. Relief of tactile (mechanical) allodynia, the defining symptom of neuropathic pain, by each of the test agents, PD123,319 or L-159,686, was quantified using calibrated von Frey filaments as described below. Tactile allodynia was quantified using calibrated von Frey filaments. Rats were placed in wire mesh testing cages (20 cm×20 cm×20 cm) and allowed to acclimatise for approximately […] Von Frey filaments were used to determine the lowest mechanical threshold required for a brisk paw withdrawal reflex. Briefly, the filament that produced the lowest force was applied to the plantar surface of the hindpaw until the filament buckled slightly. Absence of a response after 5 s prompted use of the next filament in an ascending sequence. Filaments used produced a buckling weight of 2, 4, 6, 8, 10, 12, 14, 16, 18 and 20 g and these were calibrated prior to each testing session. […] For CCI-rats, baseline von Frey paw withdrawal thresholds (PWTs) were quantified prior to CCI-surgery, and at 14 days post-surgery immediately prior to drug administration. For STZ-diabetic rats, baseline von Frey PWT values were determined prior to the induction of diabetes with STZ and at 1-2 weekly intervals thereafter for 8 weeks to document the temporal development of tactile allodynia. For all rats, baseline PWTs were the mean of three readings taken, 5 min apart before drug administration and were determined separately for each hindpaw. After administration of each test compound, von Frey PWTs were determined at the following post-dosing times: 0.08, 0.25, 0.5, 0.75, 1, 1.25, 1.5, 2 and 3 h. Paw withdrawal thresholds (PWTs; g) were plotted against time to construct response versus time curves for each of the two test compounds (PD123,319 and L-159,686) for each dose and dosing route. Whilst adult male SD rats were anaesthetized with 3% isoflurane: 97% oxygen, four loose ligatures were tied around one sciatic nerve to produce a unilateral chronic constriction injury (CCI) according to the method of Bennett and Xie (1988, Pain 33: 87-107). Briefly, the left common sciatic nerve was exposed at mid-thigh level by blunt dissection through the biceps femoris. Proximal to the trifurcation, 10 mm of nerve was freed of adhering tissue and four loose ligatures (3.0 silk) were tied around the sciatic nerve 1 mm apart). The incision was closed in layers. After surgery, rats received benzylpenicillin (60 mg s.c.) to prevent infection and were kept warm during surgical recovery. […]

[2] = tested on: rats with a chronic constriction injury (CCI) of the sciatic nerve; test: Antinociception (von Frey paw withdrawal thresholds) in the contralateral hindpaw of CCI-rats
Experimental: as §1, with “87-107).” for “87-107). Briefly, the left common sciatic nerve was exposed at mid-thigh level by blunt dissection through the biceps femoris. Proximal to the trifurcation, 10 mm of nerve was freed of adhering tissue and four loose ligatures (3.0 silk) were tied around the sciatic nerve 1 mm apart). The incision was closed in layers. After surgery, rats received benzylpenicillin (60 mg s.c.) to prevent infection and were kept warm during surgical recovery.”

[3] = tested on: rats with a chronic constriction injury (CCI) of the sciatic nerve; test: Relief of tactile allodynia (von Frey paw withdrawal thresholds) in the ipsilateral (injured) hindpaw of CCI-rats; conditions: oral bolus 1 mg/kg vs same dose i.p.
[4] = STZ-diabetic rats, i.p. bolus 0.001 to 3.0 μg/kg
[5] = CCI-rats, i.p. bolus 0.03 to 3 mg/kg
[6] = STZ-diabetic rats, sodium salt, i.p. bolus 0.0003 to 3 mg/kg
[7] = CCI-rats, sodium salt, i.p. bolus 0.003 to 10 mg/kg

Compound: Cc1cc(Cn2cnc3c2C[C@@H](C(=O)O)N(C(=O)C(c2ccccc2)c2ccccc2)C3)ccc1N(C)C [PD-123,319]
- relief of tactile allodynia (STZ-diabetic rats; STZ-diabetic rats (8-wks after STZ), single bolus i.p. 0.3-3.0 mg/kg, n=4): dose-dependent relief of tactile allodynia
- relief of tactile allodynia in the ipsilateral (injured) hindpaw ([1]; CCI-rats, single bolus i.p. 1-10 mg/kg, n=3-4): dose-dependent (A) relief of tactile allodynia
- relief of tactile allodynia in the ipsilateral (injured) hindpaw ([1]; CCI-rats, single bolus i.v. 0.1-0.3 mg/kg, n=2): dose-dependent (A) relief of tactile allodynia
- antinociception in the contralateral hindpaw ([2]; single bolus i.p. 1-10 mg/kg, n=3-4): antinociception in the contralateral hindpaw
- antinociception in the contralateral hindpaw ([2]; single bolus i.v. 0.1-0.3 mg/kg, n=2): antinociception in the contralateral hindpaw

Compound: COc1ccc(Cn2cnc3c2C[C@@H](C(=O)O)N(C(=O)C(c2ccccc2)c2ccccc2)C3)cc1C [PD-121,981]
- relief of tactile allodynia (summary in discussion) (STZ-diabetic rats): potent relief of tactile allodynia
- duration of action (STZ-diabetic rats; STZ-diabetic rats, 0.1 μg/kg, irrespective of dosing route (oral or i.p.)): exceeded 3 h
- onset of action (STZ-diabetic rats; [4]): rapid onset of action
- relief of tactile allodynia (STZ-diabetic rats; [4]): dose-dependent relief of tactile allodynia
- time of peak anti-allodynia post-dosing (STZ-diabetic rats; [4]): 0.5 to 1.0 h
- duration of action (STZ-diabetic rats; STZ-diabetic rats, i.p. doses in the range 0.03-3.0 μg/kg): > 3 h
- reversal of tactile allodynia in the hindpaws (STZ-diabetic rats; STZ-diabetic rats): fully reversed
- extent and duration of the anti-allodynic response, oral compared with i.p. route (STZ-diabetic rats; STZ-diabetic rats, oral bolus 0.1 μg/kg vs same dose i.p.): similar
- onset of anti-allodynia (summary in discussion) (STZ-diabetic rats; STZ-diabetic rats): relatively rapid onset
- extent and duration of the anti-allodynic response, oral compared with i.p. route [3]: similar
- doses required to produce significant relief of tactile allodynia in CCI-rats compared with STZ-diabetic rats [1]: considerably larger doses
- duration of action ([1]; CCI-rats, 1 mg/kg, irrespective of dosing route (oral or i.p.)): 3 h
- anti-allodynia (relief of tactile allodynia) in the ipsilateral hindpaw [1, 5]: dose-dependent anti-allodynia; also recorded: dose-dependent relief of tactile allodynia
- durations of action [1, 5]: 2 to 3 h
- onset of anti-allodynia in the ipsilateral hindpaw [1, 5]: rapid onset
- time of peak anti-allodynia in the ipsilateral hindpaw post-dosing [1, 5]: 0.5 to 0.75 h and 0.5 to 1.0 h
- antinociception in the contralateral hindpaw ([2]; i.p. doses up to 3 mg/kg): insignificant antinociception

Compound: CCc1nc2ccc(N(Cc3ccccc3)C(=O)c3cccs3)cc2c(=O)n1Cc1ccc(-c2ccccc2-c2nn[nH]n2)cc1.[Na] [L-161,638 (sodium salt), thiophene-2-carboxylic Acid benzyl-{2-ethyl-4-oxo-3-[2′-(2H-tetrazol-5yl)-biphenyl-4-ylmethyl]-3,4-dihydro-quinazolin-6-yl}-amide Sodium Salt]
- relief of tactile allodynia (summary in discussion) (STZ-diabetic rats): potent relief of tactile allodynia
- reversal of tactile allodynia in the hindpaws (STZ-diabetic rats; STZ-diabetic rats): fully reversed
- onset of anti-allodynia (summary in discussion) (STZ-diabetic rats; STZ-diabetic rats): relatively rapid onset
- duration of action (STZ-diabetic rats; STZ-diabetic rats, sodium salt, i.p. 3 mg/kg dose): > 3 h
- onset of relief of tactile allodynia (STZ-diabetic rats; [6]): rapid onset
- relief of tactile allodynia (STZ-diabetic rats; [6]): dose-dependent relief of tactile allodynia
- time of peak effects post-dosing (STZ-diabetic rats; [6]): 0.25 to 0.75 h
- relief of tactile allodynia (STZ-diabetic rats; STZ-diabetic rats, sodium salt, i.p. bolus 0.0003 to 3 mg/kg, listed as L-161,638, Sodium Salt): relief of tactile allodynia
- duration of action (STZ-diabetic rats; STZ-diabetic rats, sodium salt, i.p. doses in the range 0.0003-0.03 μg/kg): 3 h
- doses required to produce significant relief of tactile allodynia in CCI-rats compared with STZ-diabetic rats [1]: considerably larger doses
- anti-allodynia (relief of tactile allodynia) in the ipsilateral hindpaw [1, 7]: dose-dependent relief of tactile allodynia
- durations of action [1, 7]: 1.5 to 3 h
- onset of anti-allodynia in the ipsilateral hindpaw [1, 7]: rapid onset
- time of peak responses post-dosing [1, 7]: 0.5 to 0.75 h
- anti-allodynia (relief of tactile allodynia) in the ipsilateral hindpaw ([1]; CCI-rats, sodium salt, i.p. bolus 0.003 to 10 mg/kg, listed as L-161,638, Sodium Salt): dose-dependent anti-allodynia
- antinociception in the contralateral hindpaw ([2]; sodium salt, i.p. doses up to 10 mg/kg): insignificant antinociception
